Literature values, collected in patent US11582972B2, “Controlled-diffusion semiochemical composition” (MELCHIOR MATERIAL AND LIFE SCIENCE FRANCE, priority 2017, dated 2023).

System: Metamasius hemipterus sericeus
Conditions: for attractiveness: high doses: ethyl acetate >800 mg/d, ethyl propionate >300 mg/d, ethyl butyrate >100 mg/d

Row | SMILES | synergistic effect with pheromones (dose >650 mg/d, in the field) | attractiveness
1 | CCOC(C)=O [ethyl acetate] | synergistic effect with pheromones equivalent to 250 g of sugarcane | as attractive as 250 g of sugarcane
2 | CCCC(=O)OCC [ethyl butyrate] |  | as attractive as 250 g of sugarcane
3 | CCOC(=O)CC [ethyl propionate] |  | as attractive as 250 g of sugarcane
